Results reported in patent US8741897B2, “Glucocorticoid mimetics, methods of making them, pharmaceutical compositions and uses thereof” (Boehringer Ingelheim Pharmaceuticals Inc., priority 2003, dated 2014).

tested on: glucocorticoid receptor function; test: one or more of the above assays (GR binding and glucocorticoid receptor cell assays: aromatase, IL-6, TAT, MMTV-Luc, IL-8, ICAM-Luc); format: cell-based; conditions: assay not specified per compound

| Compound | activity as agonists of the glucocorticoid receptor function in one or more of the above assays |
| --- | --- |
| COc1ccc(-c2ccccc2)cc1C(C)(C)CC(O)(Cc1cc2cc(N3CCCCC3)ncc2[nH]1)C(F)(F)F (centres unmarked) [1,1,1-Trifluoro-4-(4-methoxybiphenyl-3-yl)-4-methyl-2-(5-piperidin-1-yl-1H-pyrrolo[2,3-c]pyridin-2-ylmethyl)pentan-2-ol] | potent agonists |
| CCc1cccc2[nH]c(CC(O)(CC(C)(C)c3cc(F)ccc3OC)C(F)(F)F)cc12 (centres unmarked) [2-(4-Ethyl-1H-indol-2-ylmethyl)-1,1,1-trifluoro-4-(5-fluoro-2-methoxyphenyl)-4-methylpentan-2-ol] | potent agonists |
| COc1ccc(F)cc1C(C)(C)CC(O)(Cc1cc2cc(N(C)C)ncc2[nH]1)C(F)(F)F (centres unmarked) [2-(5-Dimethylamino-1H-pyrrolo[2,3-c]pyridin-2-ylmethyl)-1,1,1-trifluoro-4-(5-fluoro-2-methoxyphenyl)-4-methylpentan-2-ol] | potent agonists |
| CC(C)C(O)(Cc1cc2cnccc2[nH]1)CC(C)(C)c1cc(Cl)cc2c1OCC2 (centres unmarked) [5-(5-Chloro-2,3-dihydrobenzofuran-7-yl)-2,5-dimethyl-3-(1H-pyrrolo[3,2-c]pyridin-2-ylmethyl)hexan-3-ol] | agonists |
| COc1ccc(-c2ccccc2C#N)cc1C(C)(C)CC(O)(Cc1cc2c(C)cncc2[nH]1)C(F)(F)F (centres unmarked) [4′-Methoxy-3′-[4,4,4-trifluoro-3-hydroxy-1,1-dimethyl-3-(4-methyl-1H-pyrrolo[2,3-c]pyridin-2-ylmethyl)butyl]biphenyl-2-carbonitrile] | potent agonists |
| CC(C)(CC(O)(Cc1cc2c(C#N)cccc2[nH]1)C(F)(F)F)c1cc(F)ccc1O (centres unmarked) [2-[4-(5-Fluoro-2-hydroxyphenyl)-2-hydroxy-4-methyl-2-trifluoromethylpentyl]-1H-indole-4-carbonitrile] | potent agonists |
| COc1cc(F)ccc1C(C)(C)CC(O)(Cc1cc2c(C)nccc2[nH]1)C(F)(F)F (centres unmarked) [1,1,1-Trifluoro-4-(4-fluoro-2-methoxyphenyl)-4-methyl-2-(4-methyl-1H-pyrrolo[3,2-c]pyridin-2-ylmethyl)pentan-2-ol] | potent agonists |
| COc1ccc(F)cc1C(C)(C)CC(O)(Cc1cc2cnccc2[nH]1)C1CC1 (centres unmarked) [2-Cyclopropyl-4-(5-fluoro-2-methoxyphenyl)-4-methyl-1-(1H-pyrrolo[3,2-c]pyridin-2-yl)pentan-2-ol] | agonists |
| CC(C)(CC(O)(Cc1cc2nc(N3CCCC3)ncc2[nH]1)C(F)(F)F)c1cc(F)ccc1O (centres unmarked) [4-Fluoro-2-[4,4,4-trifluoro-3-hydroxy-1,1-dimethyl-3-(2-pyrrolidin-1-yl-5H-pyrrolo[3,2-d]pyrimidin-6-ylmethyl)butyl]phenol] | potent agonists |
| COc1ccc(-c2ccccc2Cl)cc1C(C)(C)CC(O)(Cc1cc2cc(N3CCCCC3)ncc2[nH]1)C(F)(F)F (centres unmarked) [4-(2′-Chloro-4-methoxybiphenyl-3-yl)-1,1,1-trifluoro-4-methyl-2-(5-piperidin-1-yl-1H-pyrrolo[2,3-c]pyridin-2-ylmethyl)pentan-2-ol] | potent agonists |
| COc1ccc(-c2cccnc2)cc1C(C)(C)CC(O)(Cc1[nH]c2cnccc2c1C)C(F)(F)F (centres unmarked) [1,1,1-Trifluoro-4-(2-methoxy-5-pyridin-3-ylphenyl)-4-methyl-2-(3-methyl-1H-pyrrolo[2,3-c]pyridin-2-ylmethyl)pentan-2-ol] | potent agonists |
| COc1cc(F)ccc1C(C)(C)CC(O)(Cc1cc2c(C)cncc2[nH]1)C(F)(F)F (centres unmarked) [1,1,1-Trifluoro-4-(4-fluoro-2-methoxyphenyl)-4-methyl-2-(4-methyl-1H-pyrrolo[2,3-c]pyridin-2-ylmethyl)pentan-2-ol] | potent agonists |
| Cc1ccc(F)cc1C(C)(C)CC(O)(Cn1ccc2c1CCCC2=O)C(F)(F)F (centres unmarked) [1-[4-(5-Fluoro-2-methylphenyl)-2-hydroxy-4-methyl-2-trifluoromethylpentyl]-1,5,6,7-tetrahydroindol-4-one] | agonists |
| CCN(CC)c1cc2cc(CC(O)(CC(C)(C)c3cc(F)ccc3C)C(F)(F)F)[nH]c2cn1 (centres unmarked) [2-(5-Diethylamino-1H-pyrrolo[2,3-c]pyridin-2-ylmethyl)-1,1,1-trifluoro-4-(5-fluoro-2-methylphenyl)-4-methylpentan-2-ol] | potent agonists |
| CC(=O)c1ccc2[nH]c(CC(O)(CC(C)(C)c3cc(Cl)cc4c3OCC4)C(F)(F)F)cc2n1 (centres unmarked) [1-{2-[4-(5-Chloro-2,3-dihydrobenzofuran-7-yl)-2-hydroxy-4-methyl-2-trifluoromethylpentyl]-1H-pyrrolo[3,2-b]pyridin-5-yl}ethanone] | potent agonists |
| CC(C)(CC(O)(Cc1cc2nc(Cl)ncc2[nH]1)C(F)(F)F)c1cc(Cl)cc2c1OCC2 (centres unmarked) [4-(5-Chloro-2,3-dihydrobenzofuran-7-yl)-2-(2-chloro-5H-pyrrolo[3,2-d]pyrimidin-6-ylmethyl)-1,1,1-trifluoro-4-methylpentan-2-ol] | potent agonists |
| Cc1ccc(F)c2[nH]c(CC(O)(CC(C)(C)c3cc(S(C)(=O)=O)cc4c3OCC4)C(F)(F)F)cc12 (centres unmarked) [1,1,1-Trifluoro-2-(7-fluoro-4-methyl-1H-indol-2-ylmethyl)-4-(5-methanesulfonyl-2,3-dihydrobenzofuran-7-yl)-4-methylpentan-2-ol] | potent agonists |
| CC(C)(CC(O)(Cc1cc2nc(N3CCCC3)ncc2[nH]1)C(F)(F)F)c1cc(Cl)cc2c1OCC2 (centres unmarked) [4-(5-Chloro-2,3-dihydrobenzofuran-7-yl)-1,1,1-trifluoro-4-methyl-2-(2-pyrrolidin-1-yl-5H-pyrrolo[3,2-d]pyrimidin-6-ylmethyl)pentan-2-ol] | potent agonists |
| Cc1ccc(F)cc1C(C)(C)CC(O)(Cc1cc2c(C)cncc2[nH]1)C(F)(F)F (centres unmarked) [1,1,1-Trifluoro-4-(5-fluoro-2-methylphenyl)-4-methyl-2-(4-methyl-1H-pyrrolo[2,3-c]pyridin-2-ylmethyl)pentan-2-ol] | potent agonists |
| CN(C)c1ccc(-c2ccc3[nH]c(CC(O)(CC(C)(C)c4cc(F)cc5c4OCC5)C(F)(F)F)cc3c2)cc1 (centres unmarked) [2-[5-(4-Dimethylaminophenyl)-1H-indol-2-ylmethyl]-1,1,1-trifluoro-4-(5-fluoro-2,3-dihydrobenzofuran-7-yl)-4-methylpentan-2-ol] | potent agonists |
| CSc1cc2c(c(C(C)(C)CC(O)(Cn3ccc4ncccc43)C(F)(F)F)c1)OCC2 (centres unmarked) [1,1,1-Trifluoro-4-methyl-4-(5-methylsulfanyl-2,3-dihydrobenzofuran-7-yl)-2-pyrrolo[3,2-b]pyridin-1-ylmethylpentan-2-ol] | potent agonists |
| COc1ccc(F)cc1C(C)(C)CC(O)(Cc1cc2cnccc2[nH]1)C(C)C (centres unmarked) [5-(5-Fluoro-2-methoxyphenyl)-2,5-dimethyl-3-(1H-pyrrolo[3,2-c]pyridin-2-ylmethyl)hexan-3-ol] | agonists |
| COc1ccc(-c2cncnc2)cc1C(C)(C)CC(O)(Cc1cc2cc(Cl)ncc2[nH]1)C(F)(F)F (centres unmarked) [2-(5-Chloro-1H-pyrrolo[2,3-c]pyridin-2-ylmethyl)-1,1,1-trifluoro-4-(2-methoxy-5-pyrimidin-5-ylphenyl)-4-methylpentan-2-ol] | potent agonists |
| Cc1cc(C#N)cc2[nH]c(CC(O)(CC(C)(C)c3cc(S(C)(=O)=O)cc4c3OCC4)C(F)F)cc12 (centres unmarked) [2-[2-Difluoromethyl-2-hydroxy-4-(5-methanesulfonyl-2,3-dihydrobenzofuran-7-yl)-4-methylpentyl]-4-methyl-1H-indole-6-carbonitrile] | agonists |
| CC(C)(CC(O)(Cc1cc2cc(-c3ccc(F)cc3)ncc2[nH]1)C(F)(F)F)c1cccc(F)c1 (centres unmarked) [1,1,1-Trifluoro-4-(3-fluorophenyl)-2-[5-(4-fluorophenyl)-1H-pyrrolo[2,3-c]pyridin-2-ylmethyl]-4-methylpentan-2-ol] | potent agonists |
| CC(C)(CC(O)(Cc1cc2ccncc2[nH]1)C(F)(F)F)c1cc(-c2ccsc2)ccc1O (centres unmarked) [4-Thiophen-3-yl-2-[4,4,4-trifluoro-3-hydroxy-1,1-dimethyl-3-(1H-pyrrolo[2,3-c]pyridin-2-ylmethyl)butyl]phenol] | potent agonists |
| CC(C)(CC(O)(Cc1cc2ccncc2[nH]1)C(F)(F)F)c1cccc(C2OCCCO2)c1 (centres unmarked) [4-(3-[1,3]Dioxan-2-ylphenyl)-1,1,1-trifluoro-4-methyl-2-(1H-pyrrolo[2,3-c]pyridin-2-ylmethyl)pentan-2-ol] | potent agonists |
| CC(C)(CC(O)(Cc1cc2nc(-c3ccccc3)ncc2[nH]1)C(F)(F)F)c1cc(Cl)cc2c1OCC2 (centres unmarked) [4-(5-Chloro-2,3-dihydrobenzofuran-7-yl)-1,1,1-trifluoro-4-methyl-2-(2-phenyl-5H-pyrrolo[3,2-d]pyrimidin-6-ylmethyl)pentan-2-ol] | potent agonists |
| CC(C)(CC(O)(Cc1cc2cc(N3CCCCC3)ncc2[nH]1)C(F)(F)F)c1ccccc1 (centres unmarked) [1,1,1-Trifluoro-4-methyl-4-phenyl-2-(5-piperidin-1-yl-1H-pyrrolo[2,3-c]pyridin-2-ylmethyl)pentan-2-ol] | potent agonists |
